US9610293B2, “Co-micronization product comprising ulipristal acetate” (LABORATOIRE HRA-PHARMA, priority 2012, dated 2017)

What was measured:
[1] = In vitro dissolution of UPA from gelatin gel capsules (paddle device, European Pharmacopoeia §2.9.3, 900 ml); assay type: physicochemical; details: 30 mg UPA capsule, 900 ml gastric pH buffer + 0.1% SDS, 37°C, 50 rpm, mean of 3
Procedure: The in vitro dissolution test can be carried out using any commercially available device comprising paddles. Example 1 hereinafter presents implementing conditions for determining the in vitro dissolution rate of a comicronizate according to the invention. Briefly, an amount of comicronizate representing 30 mg of active ingredient is placed in a gelatin gel capsule. This gel capsule is then placed in 900 ml of a medium buffered at gastric pH, comprising 0.1% of SDS, at 37±0.5° C., and subjected to stirring at 50 revolutions per minute (rpm) (speed of rotation of the paddles of the dissolution device).
For each comicronizate obtained, hard gelatin gel capsules containing an amount of comicronizate corresponding to 30 mg of UPA per capsule were prepared. The studies of in vitro dissolution of UPA as comicronizate were carried out using these capsules according to the European Pharmacopoeia in §2.9.3, using a paddle dissolution device. For each comicronizate, a gel capsule containing said comicronizate was placed in a bowl of the dissolution device containing 900 ml of a dissolution medium. The dissolution medium is an aqueous solution buffered at gastric pH and comprising 0.1% by weight of SDS. The conditions for carrying out the in vitro dissolutions are the following: • Paddle rotation speed: 50 revolutions per minute (rpm) • Temperature: 37° C.±0.5° C.
The dissolution of the UPA was monitored by spectrophotometry.
By way of control experiment, a gelatin gel capsule containing 30 mg of ulipristal acetate micronized alone (i.e. UPA micronized in the absence of any co-micronization excipient) was used.
For each comicronizate, the dissolution experiment was reproduced 3 times. […]

[2] = Pharmacokinetic study in rats (plasma UPA by LC/MS/MS); assay type: in vivo; details: female, OFA(SD), rat, 4 mg UPA per kg, powder into the stomach, pooled plasma
Procedure: The pharmacokinetic study was carried out on female OFA(SD) rats weighing between 0.206 and 0.251 kg. The animals were deprived of food for 16 hours before the administration of the samples. The animals were placed in cages, the temperature of which was maintained between 20 and 25° C.; the day/night cycles were 12 h each (6 am-6 pm) and the air was conditioned using a ventilation system.
The samples tested are the following: • Comicronizate of ulipristal acetate/SDS, 1/1 ratio • Powder of ulipristal acetate micronized in the absence of any excipient (UPA micronized alone)
A predetermined amount of powder was administered by means of an oesophageal tube using a cannula. The powder was introduced into the stomach of each animal using a catheter. The dose administered corresponds to 4 mg of ulipristal acetate per kg.
Blood samples of 300 μl were taken from the (left or right) jugular of the rats. In order to avoid excessively high blood sampling, the rats were divided into 3 groups of 6 rats as follows:
The samples were collected on heparin tubes and then centrifuged within the hour for 7-8 min at 1600 g at 4° C. At each sampling time, the plasma of the 6 rats of the group is “pooled”.
The ulipristal acetate was assayed by LC/MS/MS under the following conditions: • Mobile phase: Methanol/distilled water (70/30, V/V)+1% acetic acid • Column: BDS Hypersil phenyl, 100×2.1 mm, 5 μm • Elution mode: isocratic • flow rate: 0.400 ml/min • Injection volume: 10.0 μl • Needle cleaning liquid: Acetonitrile/isopropanol/acetone (40/40/20, V/V/V) 2. Results

[3] = single dose of 30 mg within 120 hours following unprotected intercourse; cited from earlier work
[4] = chronic administration, 5 mg or 10 mg per day; cited from earlier work

SMILES	Percentage of UPA released relative to initial amount per gel capsule ([1]; t=0 min) [%]	Percentage of UPA released relative to initial amount per gel capsule ([1]; t=1 min) [%]	Percentage of UPA released relative to initial amount per gel capsule ([1]; t=5 min) [%]	Percentage of UPA released relative to initial amount per gel capsule ([1]; t=7.5 min) [%]	Percentage of UPA released relative to initial amount per gel capsule ([1]; t=10 min) [%]	Percentage of UPA released relative to initial amount per gel capsule ([1]; t=15 min) [%]	Percentage of UPA released relative to initial amount per gel capsule ([1]; t=20 min) [%]	Percentage of UPA released relative to initial amount per gel capsule ([1]; t=20 min, listed as Micronized UPA (in the absence of excipient)) [%]	Percentage of UPA released relative to initial amount per gel capsule ([1]; t=20 min, listed as ulipristal acetate which has been micronized in the absence of excipient)	Percentage of UPA released relative to initial amount per gel capsule ([1]; t=30 min) [%]	Percentage of UPA released relative to initial amount per gel capsule ([1]; t=45 min) [%]	Percentage of UPA released relative to initial amount per gel capsule ([1]; t=60 min) [%]	Tmax ([2]; oral) [h]	AUC(0-inf) ([2]; po, 4 mg/kg) [ng·h/mL]	AUC(0-t) ([2]; po, 4 mg/kg) [ng·h/mL]	Cmax ([2]; po, 4 mg/kg) [ng/mL]	Emergency contraceptive effect [3]	Effect on symptoms associated with uterine fibromas [4]
CC(=O)O[C@]1(C(C)=O)CCC2C3CCC4=CC(=O)CCC4=C3[C@@H](c3ccc(N(C)C)cc3)C[C@@]21C (stereo partly drawn) [UPA micronized alone, 17α-acetoxy-11β-[4-(N,N-dimethylamino)-phenyl]-19-norpregna-4,9-diene-3,20-dione]	0.0	0.0	5.5	15.00	22.30	30.00	34.30	34.30	approximately 35%	39.50	47.50	53.80	1.25	1380	1340	447		
CC(=O)O[C@]1(C(C)=O)CCC2C3CCC4=CC(=O)CCC4=C3[C@@H](c3ccc(N(C)C)cc3)C[C@@]21C (stereo partly drawn) [UPA, 17α-acetoxy-11β-[4-(N,N-dimethylamino)-phenyl]-19-norpregna-4,9-diene-3,20-dione]																	makes it possible to prevent an unwanted pregnancy	significantly reduce the symptoms associated with uterine fibromas
